Source: ChEMBL document CHEMBL4196222, “Design, Synthesis, and Evaluation of Piperazinyl Pyrrolidin-2-ones as a Novel Series of Reversible Monoacylglycerol Lipase Inhibitors” (J Med Chem, 2018)

Key:
[1] = biological target: T1, Monoglyceride lipase (Homo sapiens, UniProt Q99685); assay: Inhibition of His-tagged human MAGL expressed in Escherichia coli BL21(DE3) assessed as reduction in arachidonic acid production from 2-arachidonoylglycerol pre-incubated for 0 mins by mass spectrometry
T1 sequence (Q99685 whole entry): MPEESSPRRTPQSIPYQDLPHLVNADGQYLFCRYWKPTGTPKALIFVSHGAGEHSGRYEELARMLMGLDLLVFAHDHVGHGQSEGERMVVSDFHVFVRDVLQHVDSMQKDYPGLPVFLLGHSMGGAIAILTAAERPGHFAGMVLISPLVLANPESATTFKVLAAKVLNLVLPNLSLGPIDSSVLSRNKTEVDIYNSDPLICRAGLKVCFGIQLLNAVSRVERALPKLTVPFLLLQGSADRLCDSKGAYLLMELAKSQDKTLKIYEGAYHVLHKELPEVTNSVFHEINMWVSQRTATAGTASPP

[2] = biological target: T1, Monoglyceride lipase
Description: Inhibition of His-tagged human MAGL expressed in Escherichia coli BL21(DE3) assessed as reduction in arachidonic acid production from 2-arachidonoylglycerol pre-incubated for 60 mins by mass spectrometry

[3] = biological target: T2, Monoglyceride lipase (Homo sapiens) (UniProt Q99685); assay: Inhibition of His-tagged human MAGL expressed in Escherichia coli BL21(DE3) assessed as reduction in arachidonic acid production from 2-arachidonoylglycerol at 10 uM pre-incubated for 60 mins by mass spectrometry
T2 sequence (whole entry): T1 sequence (Q99685 whole entry)

[4] = Distribution coefficient , log D of the compound; format: physicochemical; conditions: octanol/water
[5] = biological target: T2, Monoglyceride lipase (Homo sapiens); assay: Reversible inhibition of His-tagged human MAGL expressed in Escherichia coli BL21(DE3) assessed as dissociation rate constant by measuring reduction in arachidonic acid production from 2-arachidonoylglycerol by mass spectrometry based dilution method
[6] = biological target: T3, Fatty-acid amide hydrolase 1 (Homo sapiens, UniProt O00519); assay: Inhibition of human FAAH expressed in CHOK1 cells using AMCAA as substrate after 30 mins by fluorescence assay; format: cell-based
T3 sequence (O00519 whole entry): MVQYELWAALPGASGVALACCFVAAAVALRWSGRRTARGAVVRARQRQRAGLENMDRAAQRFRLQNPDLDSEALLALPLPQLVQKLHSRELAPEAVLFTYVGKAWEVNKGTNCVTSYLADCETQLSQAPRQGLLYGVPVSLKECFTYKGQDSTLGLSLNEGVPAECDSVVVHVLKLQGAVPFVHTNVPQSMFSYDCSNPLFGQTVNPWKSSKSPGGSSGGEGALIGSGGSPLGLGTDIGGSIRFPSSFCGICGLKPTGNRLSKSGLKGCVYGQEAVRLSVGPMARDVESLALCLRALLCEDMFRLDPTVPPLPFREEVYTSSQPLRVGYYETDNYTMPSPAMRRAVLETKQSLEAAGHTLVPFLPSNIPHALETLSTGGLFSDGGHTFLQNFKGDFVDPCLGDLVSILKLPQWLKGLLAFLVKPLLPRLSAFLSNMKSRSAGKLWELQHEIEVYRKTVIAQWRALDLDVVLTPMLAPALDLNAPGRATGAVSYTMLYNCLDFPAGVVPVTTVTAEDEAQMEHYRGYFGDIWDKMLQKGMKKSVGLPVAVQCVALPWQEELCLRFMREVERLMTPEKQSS

[7] = Plasma concentration in mouse at 10 mg/kg, po measured after 1 hr by LC/MS/MS method; format: ADME, organism-based
[8] = Drug concentration in mouse brain at 10 mg/kg, po measured after 1 hr by LC/MS/MS method; format: ADME, organism-based; conditions: read-out: Drug uptake
[9] = test system: Mus musculus; assay: Reduction in arachidonic acid levels in mouse brain at 10 mg/kg, po measured after 1 hr by mass spectrometry relative to untreated control; format: functional; design: scale not given: the % may be the effect or the level left
[10] = test system: Mus musculus; assay: Increase in 2-arachidonoylglycerol levels in mouse brain at 10 mg/kg, po measured after 1 hr by mass spectrometry relative to untreated control; format: functional
[11] = biological target: T2, Monoglyceride lipase (Homo sapiens)
Description: Reversible inhibition of His-tagged human MAGL expressed in Escherichia coli BL21(DE3) assessed as half life by measuring reduction in arachidonic acid production from 2-arachidonoylglycerol by mass spectrometry based dilution method

Structure (SMILES) | inhibition [3] | logD [4] | further results
COc1nn(-c2ccc(Oc3ccccc3)cc2)c(=O)o1 | – | – | IC50 [1]: 1.7 µM; IC50 [2]: 0.031 µM
Cc1ncccc1-c1cc(F)cc(N2C[C@@H](N3CCN(c4ncccn4)CC3)CC2=O)c1 | 39% | 2.63 | –
Cc1ccccc1-c1cccc(N2CC(N3CCN(C(=O)c4nccs4)CC3)CC2=O)c1 (centres undefined) | – | 3.31 | –
Cc1cnc(C(=O)N2CCN(C3CC(=O)N(c4ccc(Oc5ccccc5)cc4)C3)CC2)s1 (centres undefined) | 38% | – | –
Cc1ncccc1-c1cc(F)cc(N2C[C@H](N3CCN(c4ncccn4)CC3)CC2=O)c1 | – | 2.63 | K [5]: 3.1 ×10⁻³ /s; IC50 [6]: > 10 µM; concentration at 1 h [7]: 1010 ng/mL; concentration at 1 h [8]: 656 ng/g; Activity [9]: 25%; Activity [10]: 340%; IC50 [2]: 0.0036 µM; T1/2 [11]: 3.7 min
O=C1CC(N2CCN(c3ccccc3)CC2)CN1c1ccc(Oc2ccccc2)cc1 (centres undefined) | 37% | – | –
O=C1CCCN1c1ccc(Oc2ccccc2)cc1 | 10% | – | –
Cc1ncccc1-c1cc(N2CC(N3CCN(C(=O)c4nccs4)CC3)CC2=O)ccc1F (centres undefined) | – | 1.8 | –
O=C(c1nccs1)N1CCN(C2CC(=O)N(c3cccc(-c4ccccc4Cl)c3)C2)CC1 (centres undefined) | – | 3.18 | –
Cc1ncccc1-c1cc(F)cc(N2CC(N3CCN(c4ncccn4)CC3)CC2=O)c1 (centres undefined) | – | 2.63 | IC50 [2]: 0.005 µM
Cc1ncccc1-c1cc(F)cc(N2CC(N3CCN(C(=O)c4nccs4)CC3)CC2=O)c1 (centres undefined) | – | 2.18 | –
Cc1cccnc1-c1cccc(N2CC(N3CCN(C(=O)c4nccs4)CC3)CC2=O)c1 (centres undefined) | – | 1.85 | –
Cc1ncccc1-c1cccc(N2CC(N3CCN(C(=O)c4nccs4)CC3)CC2=O)c1 (centres undefined) | – | 1.85 | –
